From patent publication US20220112445A1 (priority 2019, published 2022)
Read-outs that look alike come from different tables or passages of the source.

How the values were obtained:
[1] = test system: Bacillus spores; conditions: cited from earlier work
[2] = test system: Bacillus subtilis spores; conditions: 20 mg/I hydrogen peroxide for 60 minutes; cited from earlier work
[3] = test system: Bacillus spores
Protocol: Other embodiments of the treatment formula were also tested using varying amounts of hydrogen peroxide.

[4] = test system: Bacillus subtilis subsp. globigii; conditions: cited from earlier work

OO [H2O2, hydrogen peroxide]
concentration exponent ([1]; 25° C., levels of between 10 and 20% (w/v)): about 1.5 | bactericidal / sporicidal activity ([1]; concentration of 6% (w/vol)): bactericidal, but only slowly sporicidal | kill of Bacillus subtilis spores [2]: no kill | Spore Survival 5 Minutes ([3]; 0.285 Percent H2O2, 5 minutes after mixing): Excellent | Spore Survival 2 Hours ([3]; 0.285 Percent H2O2, 2 hours after mixing): Excellent | Spore Survival 4 Hours ([3]; 0.285 Percent H2O2, 4 hours after mixing): Excellent | Spore Survival 6 Hours ([3]; 0.285 Percent H2O2, 6 hours after mixing): Excellent | Spore Survival 24 Hours ([3]; 0.285 Percent H2O2, 24 hours after mixing): Excellent | Spore Survival 5 Minutes ([3]; 0.71 Percent H2O2, 5 minutes after mixing): Excellent | Spore Survival 2 Hours ([3]; 0.71 Percent H2O2, 2 hours after mixing): Good | Spore Survival 4 Hours ([3]; 0.71 Percent H2O2, 4 hours after mixing): Fair | Spore Survival 6 Hours ([3]; 0.71 Percent H2O2, 6 hours after mixing): Fair | Spore Survival 24 Hours ([3]; 0.71 Percent H2O2, 24 hours after mixing): Poor | spore viability ([3]; 1.43% hydrogen peroxide level): not viable | Spore Survival 5 Minutes ([3]; 1.43 Percent H2O2, 5 minutes after mixing): 0 | Spore Survival 2 Hours ([3]; 1.43 Percent H2O2, 2 hours after mixing): 0 | Spore Survival 4 Hours ([3]; 1.43 Percent H2O2, 4 hours after mixing): 0 | Spore Survival 6 Hours ([3]; 1.43 Percent H2O2, 6 hours after mixing): 0 | Spore Survival 24 Hours ([3]; 1.43 Percent H2O2, 24 hours after mixing): 0 | effectiveness against Bacillus subtilis subsp. globigii ([4]; 10% hydrogen peroxide at room temperature): ineffective | concentration required for the destruction of these spores ([4]; high temperature (80° C.)): 35%
